Data on eight compounds can be found in ChEMBL document CHEMBL1201862, “PubChem BioAssay data set” (2004).

Active and inactive are the calls of the source. A value given as a limit tells only on which side of the number the result lay.

The test system of assay [1] is Streptococcus sp. 'group A'. Description: Streptococcus pyogenes SK(-)GAS viability under kanamycin – luminescence, BacTiterGlo, confirmation, counter-screen for streptokinase expression inhibitor project, dose response (AID 1900). In kind it is functional, organism-based. Particulars: Streptococcus sp. 'group A'. Background: Counterscreens check selectivity or assay interference.

Assay [2] is described as follows: cells. In kind it is functional, cell-based.
The next assay concerns Vero. Description: mammalian cell viability reduction – secondary assay, cytotoxicity control for West Nile virus antiviral project, dose response (AID 1650). In kind it is functional. The conditions noted are these: Chlorocebus sabaeus.
A short description of assay [3]: Trypanosoma cruzi growth suppression in host cells – NIH3T3 host cells, beta-gal luminescence, confirmation (AID 2044).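 Also: intracellular parasites grown in NIH/3T3 mouse fibroblasts as host cells; luminescent beta-galactosidase reporter signal from transgenic T. cruzi replicating inside host cells; inhibitors lower the luminescence signal.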 In kind it is functional, cell-based.
Assay [4] can be described thus: microbe, parasite or virus in culture. Particulars: Mycobacterium tuberculosis. The class given is functional.
The nature of assay [5]: cells. In kind it is functional, cell-based. The source holds these as a separate data set.
The nature of assay [6]: NIH3T3 cell viability loss – ATP luminescence, mouse fibroblasts, counter-screen, dose response (AID 2010).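 Also: cells exposed to compound for about 90 hours before reading.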 In kind it is functional, cell-based.
For a further assay, the system named is Streptococcus. Briefly: GAS UMAA2166 growth inhibition – luminescence, BacTiterGlo, counter-screen for streptokinase expression inhibitor project, dose response (AID 1915).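 Also: potency for reduction of bacterial viability or growth.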 The class given is functional, organism-based. The conditions noted are these: Streptococcus.
Another assay deals with Prothrombin (Homo sapiens, UniProt P00734). Briefly: Thrombin 1536 HTS Dose Response Confirmation. [Related pubchem assays: 1046 (Thrombin 1536 HTS; hits were confirmed in this assay)]. The class given is functional.
Assay [7] is described as follows: reduction of Shn3 3'UTR-driven luciferase in osteoblasts – cell-based, Clone20 osteoblasts, firefly luciferase, cherry-picked, dose response (AID 624132).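 Also: firefly luciferase luminescence from reporter carrying the Shn3 3'UTR in osteoblasts.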 In kind it is functional.
The nature of assay [8]: non-specific 3'UTR reporter inhibition in Clone20-Shn3RL – cell-based, Renilla luciferase, cherry-picked, counter-screen for Shn3 inhibitor project, dose response (AID 624133). In kind it is functional.
For another assay, the target named is Paired box protein Pax-8 (Homo sapiens, UniProt Q06710). Briefly: PAX8 transcriptional activity inhibition in RMG-I – RMG-I cells, luciferase, cherry-pick, dose response (AID 687027).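 Also: luciferase reporter driven by Pax8 target thyroperoxidase promoter measured by SteadyGlo luminescence.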 The class given is functional, cell-based.
Assay [9] concerns the target T1, RNA-binding protein pos-1 (Caenorhabditis elegans, UniProt G5EF15).
T1 sequence (G5EF15 whole entry): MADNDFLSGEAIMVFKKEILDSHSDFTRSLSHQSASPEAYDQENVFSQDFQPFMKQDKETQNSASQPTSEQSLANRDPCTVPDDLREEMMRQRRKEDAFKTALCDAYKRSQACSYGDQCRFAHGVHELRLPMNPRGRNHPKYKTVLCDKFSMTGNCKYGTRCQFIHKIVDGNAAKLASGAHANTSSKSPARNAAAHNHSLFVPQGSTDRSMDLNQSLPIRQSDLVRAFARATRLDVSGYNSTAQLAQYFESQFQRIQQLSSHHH
Briefly: disruptors of C. elegans POS-1 RNA interaction – biochemical, fluorescence polarization, dose response (AID 1964).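 Also: purified POS-1 fused to maltose binding protein made in E. coli; potency of compounds blocking POS-1 binding to fluorescent RNA.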

For assay [10], the target named is T2, Zinc finger protein mex-5 (Caenorhabditis elegans, UniProt Q9XUB2).
T2 sequence (Q9XUB2 whole entry): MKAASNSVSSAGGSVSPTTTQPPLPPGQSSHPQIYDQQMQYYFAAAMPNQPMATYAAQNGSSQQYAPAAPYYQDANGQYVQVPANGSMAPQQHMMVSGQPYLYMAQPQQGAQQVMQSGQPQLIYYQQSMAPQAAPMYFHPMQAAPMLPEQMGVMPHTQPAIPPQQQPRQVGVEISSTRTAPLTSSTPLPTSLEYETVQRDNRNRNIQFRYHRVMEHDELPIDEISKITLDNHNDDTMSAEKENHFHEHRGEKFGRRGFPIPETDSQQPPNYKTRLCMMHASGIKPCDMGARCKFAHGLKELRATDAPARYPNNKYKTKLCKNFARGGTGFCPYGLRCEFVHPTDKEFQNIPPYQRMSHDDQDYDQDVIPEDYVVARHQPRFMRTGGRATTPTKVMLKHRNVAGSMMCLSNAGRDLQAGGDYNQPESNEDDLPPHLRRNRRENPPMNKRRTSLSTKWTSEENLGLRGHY
Briefly: potency of MEX-5 RNA-binding blockers – biochemical, C. elegans, fluorescence polarization, dose response (AID 1960).

Assay [11] has as its target T3, Bifunctional protein GlmU (Mycobacterium tuberculosis, UniProt P9WMN3).
T3 sequence (P9WMN3 whole entry): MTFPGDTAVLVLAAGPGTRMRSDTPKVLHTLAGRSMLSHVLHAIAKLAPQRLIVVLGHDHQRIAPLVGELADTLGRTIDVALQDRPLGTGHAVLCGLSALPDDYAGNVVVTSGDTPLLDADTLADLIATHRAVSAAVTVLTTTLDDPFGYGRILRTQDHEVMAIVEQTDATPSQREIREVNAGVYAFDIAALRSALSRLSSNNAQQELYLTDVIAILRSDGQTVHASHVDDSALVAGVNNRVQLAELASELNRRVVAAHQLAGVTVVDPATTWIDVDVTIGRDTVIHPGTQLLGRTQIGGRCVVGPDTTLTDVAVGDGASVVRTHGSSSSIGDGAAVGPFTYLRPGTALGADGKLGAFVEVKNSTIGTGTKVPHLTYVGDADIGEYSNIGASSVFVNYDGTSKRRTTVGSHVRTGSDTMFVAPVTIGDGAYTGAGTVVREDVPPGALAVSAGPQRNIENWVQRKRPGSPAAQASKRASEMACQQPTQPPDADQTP
Description: Inhibitors of Mycobacterial Glucosamine-1-phosphate acetyl transferase (GlmU). Secondary screen. Details: species or system Mycobacterium tuberculosis H37Rv.

Assay [12] concerns the target T4, Carboxy-terminal domain RNA polymerase II polypeptide A small phosphatase 1 (Homo sapiens, UniProt Q9GZU7).
T4 sequence (Q9GZU7 whole entry): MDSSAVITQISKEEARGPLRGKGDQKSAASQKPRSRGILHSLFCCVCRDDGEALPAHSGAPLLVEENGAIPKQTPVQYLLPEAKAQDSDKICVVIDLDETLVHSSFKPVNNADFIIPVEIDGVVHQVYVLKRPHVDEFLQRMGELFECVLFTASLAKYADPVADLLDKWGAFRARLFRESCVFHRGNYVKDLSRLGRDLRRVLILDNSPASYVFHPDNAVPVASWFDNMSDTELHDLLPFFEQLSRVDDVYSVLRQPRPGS
Briefly: CTDSP1 inhibitors, concentration-response, biochemical, absorbance readout, ultra-high-throughput screen actives (AID 540297). The class given is functional.

Assay [13] addresses T5, Histone-lysine N-methyltransferase NSD2 (Homo sapiens, UniProt O96028).
T5 sequence (O96028 whole entry): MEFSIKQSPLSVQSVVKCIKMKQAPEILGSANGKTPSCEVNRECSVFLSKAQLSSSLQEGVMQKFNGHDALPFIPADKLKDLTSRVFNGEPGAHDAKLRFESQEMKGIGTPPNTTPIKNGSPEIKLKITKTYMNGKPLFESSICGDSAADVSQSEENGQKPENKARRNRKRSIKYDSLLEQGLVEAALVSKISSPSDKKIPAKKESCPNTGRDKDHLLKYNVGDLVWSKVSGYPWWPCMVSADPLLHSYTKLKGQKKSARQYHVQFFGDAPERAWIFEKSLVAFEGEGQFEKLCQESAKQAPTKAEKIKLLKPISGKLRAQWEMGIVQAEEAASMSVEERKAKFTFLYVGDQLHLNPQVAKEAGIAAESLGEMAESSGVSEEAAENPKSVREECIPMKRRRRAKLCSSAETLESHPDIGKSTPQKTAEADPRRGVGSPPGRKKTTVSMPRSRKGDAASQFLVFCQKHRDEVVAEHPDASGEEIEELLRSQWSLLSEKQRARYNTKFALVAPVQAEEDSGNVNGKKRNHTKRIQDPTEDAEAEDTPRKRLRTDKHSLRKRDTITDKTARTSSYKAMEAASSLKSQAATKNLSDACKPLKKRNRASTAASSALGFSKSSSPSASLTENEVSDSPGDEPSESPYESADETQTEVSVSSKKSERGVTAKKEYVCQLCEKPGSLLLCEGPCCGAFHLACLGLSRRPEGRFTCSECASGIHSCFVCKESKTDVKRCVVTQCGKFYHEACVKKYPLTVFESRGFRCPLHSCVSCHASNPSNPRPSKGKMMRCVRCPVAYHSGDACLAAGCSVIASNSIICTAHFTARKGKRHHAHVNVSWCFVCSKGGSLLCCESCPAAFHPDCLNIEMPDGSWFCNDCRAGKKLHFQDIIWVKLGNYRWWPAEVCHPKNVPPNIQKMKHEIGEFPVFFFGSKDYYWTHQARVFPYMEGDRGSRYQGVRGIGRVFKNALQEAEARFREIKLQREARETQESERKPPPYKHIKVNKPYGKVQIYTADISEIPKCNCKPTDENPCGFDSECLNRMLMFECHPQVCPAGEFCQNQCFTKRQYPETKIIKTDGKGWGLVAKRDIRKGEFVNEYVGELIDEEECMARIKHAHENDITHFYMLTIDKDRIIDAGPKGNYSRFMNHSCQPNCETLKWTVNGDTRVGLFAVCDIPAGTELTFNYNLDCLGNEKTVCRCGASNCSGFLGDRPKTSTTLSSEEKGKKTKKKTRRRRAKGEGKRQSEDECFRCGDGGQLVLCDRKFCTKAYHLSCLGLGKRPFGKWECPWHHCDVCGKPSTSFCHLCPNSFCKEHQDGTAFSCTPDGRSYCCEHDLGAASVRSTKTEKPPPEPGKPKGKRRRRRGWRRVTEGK
The class given is biochemical.

Assay [14] can be described thus: luciferase reporter signal suppression in cells – H4 neuroglioma cells, luminescence, dose response (AID 1990). In kind it is functional, cell-based. In general terms: In a reporter assay the amount or activity of a reporter protein is the signal.
A short description of assay [15]: Luminescence Cell-Based Dose Response HTS to Identify Inhibitors of 5'UTR Stem-Loop Driven Prion Protein mRNA Translation in H4 Neuroglioblastoma Cells. [Related pubchem assays: 1827 (Project Summary), 1813 (Primary HTS)]. In kind it is functional.
The nature of assay [16]: alpha-synuclein stem-loop luciferase translation blockers – H4 neuroglioma cells, luminescence, confirmation (AID 1988). The class given is functional, cell-based.

Sequence of Paired box protein Pax-8 (Q06710 whole entry): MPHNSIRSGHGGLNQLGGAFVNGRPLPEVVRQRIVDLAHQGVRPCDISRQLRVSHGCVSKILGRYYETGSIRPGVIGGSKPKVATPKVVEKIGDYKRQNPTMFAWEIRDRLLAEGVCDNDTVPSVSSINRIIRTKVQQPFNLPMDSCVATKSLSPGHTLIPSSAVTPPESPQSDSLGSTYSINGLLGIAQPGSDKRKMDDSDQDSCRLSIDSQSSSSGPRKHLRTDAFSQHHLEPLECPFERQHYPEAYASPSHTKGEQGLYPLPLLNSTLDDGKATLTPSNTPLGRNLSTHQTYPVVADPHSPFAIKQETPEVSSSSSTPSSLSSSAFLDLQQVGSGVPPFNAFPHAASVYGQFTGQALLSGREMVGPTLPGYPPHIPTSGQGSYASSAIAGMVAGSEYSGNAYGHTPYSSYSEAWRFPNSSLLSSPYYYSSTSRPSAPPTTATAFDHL

For orientation: EC50 means the midpoint of the concentration-response curve. Turning to `Cc1cccc(C)c1Nc1c(-c2ccccn2)nc2ccccn12`, the 50% effective concentration (EC50) was 2.52 µM (active) in [1]; 92.4 µM (active) in the assay “cells [2]”; 1.45 µM (active) in assay [3]; > 350 µM (not active) in “cells [5]”; 6.81 µM (active) in assay [6]; 6.43 µM (active) with Streptococcus. The CC50 in the assay on Vero is 4.16 µM (active); in assay [4], 3.91 µM (active).

On to `O=C(Nc1ccccc1-c1nc2ccccc2s1)c1ccco1`, for which the CC50 with Vero was 12.8 µM (active).

As usually defined, the IC50 is the concentration that gives 50% inhibition. Turning to `CCCC(C)C(=O)Nc1ccc(F)c(Cl)c1` (stereo not given), the IC50 against Prothrombin is given as > 50 µM (not active).

For the compound `CCOc1ccc(NC(=O)C(C)O)c(NS(=O)(=O)c2ccc(CCNC(C)=O)cc2)c1` (stereo not given), the half-maximal inhibitory concentration (IC50) against Prothrombin was > 50 µM (not active).

By AC50 is commonly meant the concentration giving half of the maximal activity seen. With `C=C1C(=O)[C@@]23[C@H](O)C[C@@H]4C(C)(C)CC[C@H](O)[C@]4(C)[C@@H]2C[C@H](O)[C@@H]1[C@H]3O`, the CC50 in the assay with Vero is 14.9 µM (active). The results for the AC50 (in assay [7]; in [8]; on Paired box protein Pax-8) were 2.95 µM (active), 18.3 µM (active) and 3.37 µM (active), respectively.

In the case of `CC(=O)NC1=NC(=O)/C(=C/c2cc(C)n(-c3cccc(C(=O)O)c3)c2C)S1`, the values for the EC50 in assay [9] and in [10] were > 300 µM (not active) and > 300 µM (inconclusive), respectively. In addition, the IC50 in assay [11] was 93.8 µM (active); in [12], 4.31 µM (active). The AC50 in [13] is 9.13 µM (active).

With `Cc1ccc(S(=O)(=O)/N=C/c2ccco2)cc1`, at Prothrombin, the IC50 is > 50 µM (not active).

As for `C=CCc1cccc(/C=N/NC(=O)CNc2ccccc2)c1O`, the EC50 was > 120 µM (not active) in [14], 10.7 µM (active) in [15] and > 120 µM (not active) in assay [16]. Moreover, the IC50 at Prothrombin is > 50 µM (not active).
